Earlier results in patent US20060240013A1, “Diagnostics and therapeutics for diseases associated with bile acid g-protein-coupled receptor 37 (bg37)” (BAYER HEALTHCARE AG, priority 2002, published 2006).

Target: T1, BG37 receptor (Homo sapiens, UniProt Q8TDU6)
T1 sequence (Q8TDU6 1-330): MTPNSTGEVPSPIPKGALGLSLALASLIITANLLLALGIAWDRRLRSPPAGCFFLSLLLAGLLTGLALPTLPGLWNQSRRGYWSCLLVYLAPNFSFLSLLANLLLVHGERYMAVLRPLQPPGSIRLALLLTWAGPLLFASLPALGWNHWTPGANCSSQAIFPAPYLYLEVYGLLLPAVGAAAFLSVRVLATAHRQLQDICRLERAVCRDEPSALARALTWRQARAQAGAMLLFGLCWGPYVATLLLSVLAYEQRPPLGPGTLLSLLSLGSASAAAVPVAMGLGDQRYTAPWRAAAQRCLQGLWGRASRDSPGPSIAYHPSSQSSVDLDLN
Details: intracellular cAMP levels modulated through BG37 receptor; Maruyama et al. (2002)

| SMILES | rank order of potency of bile acids |
| --- | --- |
| C[C@H](CCC(=O)O)[C@H]1CC[C@H]2[C@@H]3[C@H](O)C[C@@H]4C[C@H](O)CC[C@]4(C)[C@H]3CC[C@]12C [chenodeoxycholic acid] | lithocholic acid>deoxycholic acid>chenodeoxycholic acid>cholic acid |
| C[C@H](CCC(=O)O)[C@H]1CC[C@H]2[C@@H]3[C@H](O)C[C@@H]4C[C@H](O)CC[C@]4(C)[C@H]3C[C@H](O)[C@]12C [cholic acid] | lithocholic acid>deoxycholic acid>chenodeoxycholic acid>cholic acid |
